Assay results: ChEMBL document CHEMBL3763135, “Synthesis and evaluation of thiophene-based guanylhydrazones (iminoguanidines) efficient against panel of voriconazole-resistant fungal isolates” (Bioorg Med Chem, 2016)
The source made the active and inactive calls. The calls are words filed in the database; no cut-off is given here.

Assays:
[1] = system: Candida albicans; experiment: Antifungal activity against Candida albicans CA5 by broth dilution method; assay type: functional
[2] = system: Aspergillus fumigatus; experiment: Antifungal activity against Aspergillus fumigatus ATCC 13073 by broth dilution method; assay type: functional
[3] = system: Microsporum canis; experiment: Antifungal activity against Microsporum canis DMT2 by broth dilution method; assay type: functional
[4] = system: MRC5; experiment: Cytotoxicity against human MRC5 cells after 48 hrs by MTT assay; assay type: cell-based; conditions: MRC5, 48 h
[5] = system: Candida albicans; experiment: Antifungal activity against Candida albicans CA5 assessed as fungal growth at sub-MIC measured after 24 hrs by time-kill dependence-based spectrophotometric analysis relative to DMSO control; assay type: functional, organism-based
[6] = Induction of membrane damage in PC/PS/E liposome assessed as calcein release at MIC after 30 mins by fluorescence-based liposome leakage assay; assay type: functional
[7] = system: Candida albicans; experiment: Antibiofilm activity against Candida albicans assessed as inhibition of Spider medium-induced hyphae formation at sub-MIC after 24 hrs by propidium iodide and FITC-conjugated concanavaline A staining based fluorescence microscopy; assay type: functional, organism-based
[8] = system: Candida albicans; experiment: Antibiofilm activity against Candida albicans ATCC 10231 assessed as disruption of preformed biofilm after 24 hrs by concanavalin A-FITC-staining based fluorescence microscopic analysis; assay type: functional
[9] = system: Candida parapsilosis; experiment: Antibiofilm activity against Candida parapsilosis C27 assessed as disruption of preformed biofilm after 24 hrs by concanavalin A-FITC-staining based fluorescence microscopic analysis; assay type: functional
[10] = Toxicity against zebrafish embryo assessed as dead embryos at 50 ug/ml measured at 96 hrs post fertilization by inverted microscopic analysis; assay type: organism-based, Danio rerio; conditions: read-out: Activity
[11] = Toxicity against zebrafish embryo assessed as dead embryos at 25 ug/ml measured at 96 hrs post fertilization by inverted microscopic analysis; assay type: organism-based, Danio rerio; conditions: read-out: Activity
[12] = Toxicity against zebrafish embryo assessed as dead embryos at 5 ug/ml measured at 96 hrs post fertilization by inverted microscopic analysis; assay type: organism-based, Danio rerio; conditions: read-out: Activity
[13] = Toxicity against zebrafish embryo assessed as dead embryos at 2.5 ug/ml measured at 96 hrs post fertilization by inverted microscopic analysis; assay type: organism-based, Danio rerio; conditions: read-out: Activity
[14] = species: Danio rerio; experiment: Toxicity against zebrafish embryo assessed as teratogenic embryos at 50 ug/ml measured at 96 hrs post fertilization by inverted microscopic analysis; assay type: organism-based; conditions: in vivo
[15] = species: Danio rerio; experiment: Toxicity against zebrafish embryo assessed as teratogenic embryos at 25 ug/ml measured at 96 hrs post fertilization by inverted microscopic analysis; assay type: organism-based; conditions: in vivo
[16] = species: Danio rerio; experiment: Toxicity against zebrafish embryo assessed as teratogenic embryos at 5 ug/ml measured at 96 hrs post fertilization by inverted microscopic analysis; assay type: organism-based; conditions: in vivo
[17] = species: Danio rerio; experiment: Toxicity against zebrafish embryo assessed as teratogenic embryos at 2.5 ug/ml measured at 96 hrs post fertilization by inverted microscopic analysis; assay type: organism-based; conditions: in vivo
[18] = species: Danio rerio; experiment: Toxicity against zebrafish embryo assessed as effect on tail tip at 10 ug/ml measured at 96 hrs post fertilization by inverted microscopic analysis; assay type: organism-based; conditions: in vivo
[19] = species: Danio rerio; experiment: Toxicity against zebrafish embryo assessed as effect on tail tip at 2.5 ug/ml measured at 96 hrs post fertilization by inverted microscopic analysis; assay type: organism-based; conditions: in vivo
[20] = species: Danio rerio; experiment: Toxicity against zebrafish embryo assessed as growth retardation at 5 ug/ml measured at 96 hrs post fertilization by inverted microscopic analysis; assay type: organism-based; conditions: in vivo
[21] = Toxicity against zebrafish embryo measured at 96 hrs post fertilization by inverted microscopic analysis; assay type: organism-based, Danio rerio; conditions: zebrafish embryos
[22] = species: Danio rerio; experiment: Toxicity against zebrafish embryo assessed as normal embryos at 50 ug/ml measured at 96 hrs post fertilization by inverted microscopic analysis; assay type: organism-based; conditions: in vivo
[23] = species: Danio rerio; experiment: Toxicity against zebrafish embryo assessed as normal embryos at 25 ug/ml measured at 96 hrs post fertilization by inverted microscopic analysis; assay type: organism-based; conditions: in vivo
[24] = species: Danio rerio; experiment: Toxicity against zebrafish embryo assessed as normal embryos at 10 ug/ml measured at 96 hrs post fertilization by inverted microscopic analysis; assay type: organism-based; conditions: in vivo
[25] = species: Danio rerio; experiment: Toxicity against zebrafish embryo assessed as normal embryos at 5 ug/ml measured at 96 hrs post fertilization by inverted microscopic analysis; assay type: organism-based; conditions: in vivo
[26] = species: Danio rerio; experiment: Toxicity against zebrafish embryo assessed as effect on notochord at 10 ug/ml measured at 96 hrs post fertilization by inverted microscopic analysis; assay type: organism-based; conditions: in vivo
[27] = species: Danio rerio; experiment: Toxicity against zebrafish embryo assessed as effect on notochord at 5 ug/ml measured at 96 hrs post fertilization by inverted microscopic analysis; assay type: organism-based; conditions: in vivo
[28] = species: Danio rerio; experiment: Toxicity against zebrafish embryo assessed as effect on notochord at 2.5 ug/ml measured at 96 hrs post fertilization by inverted microscopic analysis; assay type: organism-based; conditions: in vivo
[29] = species: Danio rerio; experiment: Toxicity against zebrafish embryo assessed as effect on eyes at 5 ug/ml measured at 96 hrs post fertilization by inverted microscopic analysis; assay type: organism-based; conditions: in vivo
[30] = species: Danio rerio; experiment: Toxicity against zebrafish embryo assessed as effect on eyes at 2.5 ug/ml measured at 96 hrs post fertilization by inverted microscopic analysis; assay type: organism-based; conditions: in vivo
[31] = species: Danio rerio; experiment: Toxicity against zebrafish embryo assessed as effect on otoliths at 10 ug/ml measured at 96 hrs post fertilization by inverted microscopic analysis; assay type: organism-based; conditions: in vivo
[32] = species: Danio rerio; experiment: Toxicity against zebrafish embryo assessed as effect on otoliths at 5 ug/ml measured at 96 hrs post fertilization by inverted microscopic analysis; assay type: organism-based; conditions: in vivo
[33] = system: Danio rerio; experiment: Toxicity against zebrafish embryo assessed as pericardial edema at 10 ug/ml measured at 96 hrs post fertilization by inverted microscopic analysis; assay type: organism-based; conditions: in vivo
[34] = system: Danio rerio; experiment: Toxicity against zebrafish embryo assessed as pericardial edema at 5 ug/ml measured at 96 hrs post fertilization by inverted microscopic analysis; assay type: organism-based; conditions: in vivo
[35] = system: Danio rerio; experiment: Toxicity against zebrafish embryo assessed as pericardial edema at 2.5 ug/ml measured at 96 hrs post fertilization by inverted microscopic analysis; assay type: organism-based; conditions: in vivo
[36] = system: Danio rerio; experiment: Toxicity against zebrafish embryo assessed as yolk edema at 10 ug/ml measured at 96 hrs post fertilization by inverted microscopic analysis; assay type: organism-based; conditions: in vivo
[37] = system: Danio rerio; experiment: Toxicity against zebrafish embryo assessed as yolk edema at 5 ug/ml measured at 96 hrs post fertilization by inverted microscopic analysis; assay type: organism-based; conditions: in vivo
[38] = system: Danio rerio; experiment: Toxicity against zebrafish embryo assessed as yolk edema at 2.5 ug/ml measured at 96 hrs post fertilization by inverted microscopic analysis; assay type: organism-based; conditions: in vivo
[39] = species: Danio rerio; experiment: Toxicity against zebrafish embryo assessed as effect on heart beat at 5 ug/ml measured at 96 hrs post fertilization by inverted microscopic analysis; assay type: organism-based; conditions: in vivo
[40] = species: Danio rerio; experiment: Toxicity against zebrafish embryo assessed as effect on heart beat at 2.5 ug/ml measured at 96 hrs post fertilization by inverted microscopic analysis; assay type: organism-based; conditions: in vivo
[41] = species: Danio rerio; experiment: Toxicity against zebrafish embryo assessed as effect on blood circulation at 10 ug/ml measured at 96 hrs post fertilization by inverted microscopic analysis; assay type: organism-based; conditions: in vivo
[42] = species: Danio rerio; experiment: Toxicity against zebrafish embryo assessed as effect on blood circulation at 2.5 ug/ml measured at 96 hrs post fertilization by inverted microscopic analysis; assay type: organism-based; conditions: in vivo
[43] = species: Danio rerio; experiment: Toxicity against zebrafish embryo assessed as unhatched embryos at 10 ug/ml measured at 96 hrs post fertilization by inverted microscopic analysis; assay type: organism-based; conditions: in vivo
[44] = species: Danio rerio; experiment: Toxicity against zebrafish embryo assessed as unhatched embryos at 5 ug/ml measured at 96 hrs post fertilization by inverted microscopic analysis; assay type: organism-based; conditions: in vivo
[45] = species: Danio rerio; experiment: Toxicity against zebrafish embryo assessed as head malformation at 5 ug/ml measured at 96 hrs post fertilization by inverted microscopic analysis; assay type: organism-based; conditions: in vivo
[46] = species: Danio rerio; experiment: Toxicity against zebrafish embryo assessed as skeletal deformities at 5 ug/ml measured at 96 hrs post fertilization by inverted microscopic analysis; assay type: organism-based; conditions: in vivo
[47] = species: Danio rerio; experiment: Toxicity against zebrafish embryo assessed as skeletal deformities at 2.5 ug/ml measured at 96 hrs post fertilization by inverted microscopic analysis; assay type: organism-based; conditions: in vivo

## Cl.Cl.N=C(N)N/N=C/c1ccc(-c2ccc(/C=N/NC(=N)N)s2)cc1
[1]
  MIC: 0.5 µg/mL
[2]
  MIC: 25 µg/mL
[3]
  MIC: 0.97 µg/mL
[4]
  IC50: 10 µg/mL
[5]
  Activity: inactive
[6]
  Activity: 7%
[7]
  Activity: Active
[8]
  MBEC: 250 µg/mL
[9]
  MBEC: 500 µg/mL
[10]
  mortality at 96 h, 50 ug/ml: 3.33%
[11]
  mortality at 96 h, 25 ug/ml: 3.33%
[12]
  mortality at 96 h, 5 ug/ml: 0%
[13]
  mortality at 96 h, 2.5 ug/ml: 0%
[14]
  Activity: 0%
[15]
  Activity: 0%
[16]
  Activity: 0%
[17]
  Activity: 0%
[18]
  Activity: 0%
[19]
  Activity: 0%
[20]
  Activity: 0%
[21]
  LC50 at 96 h: > 50 µg/mL
[22]
  Activity: 96.67%
[23]
  Activity: 96.67%
[24]
  Activity: 100%
[25]
  Activity: 100%
[26]
  Activity: 0%
[27]
  Activity: 0%
[28]
  Activity: 0%
[29]
  Activity: 0%
[30]
  Activity: 0%
[31]
  Activity: 0%
[32]
  Activity: 0%
[33]
  Activity: 0%
[34]
  Activity: 0%
[35]
  Activity: 0%
[36]
  Activity: 0%
[37]
  Activity: 0%
[38]
  Activity: 0%
[39]
  Activity: 0%
[40]
  Activity: 0%
[41]
  Activity: 0%
[42]
  Activity: 0%
[43]
  Activity: 0%
[44]
  Activity: 0%
[45]
  Activity: 0%
[46]
  Activity: 0%
[47]
  Activity: 0%
